# Where two headings read alike, the source gives them in different places.
# Experiments:
# VeroE6 cells = assay: In vitro cytotoxicity (Hoechst 33342 / Sytox orange imaging); type: cell-based
# Experimental: The cytotoxicity assay was done in a 96-well plate format in 3 wells for each sample. 1×10e4 VeroE6 cells were plated per well and incubated at 37° C. overnight for the monolayer formation. Next day, cells were incubated with 1 μl (5.5 mg/ml solution in 200 μl) A. paniculate at the concentration with final DMSO conc. being 0.5%. The control cells were incubated with 0.5% DMSO only. The cells without test substance was the control for water soluble compounds. 24 and 48 hours later, cells were stained with Hoechst 33342 and Sytox orange dye. Images were taken at 10×, 16 images per well, which covers 90% of well area using ImageXpress Microconfocal (Molecular Devices). Hoechst 33342 nucleic acid stain is a popular cell-permeant nuclear counterstain that emits blue fluorescence when bound to dsDNA. It stains all the live and dead cells. Sytox orange dye stains nucleic acids in cells with compromised membranes. This stain is an indicator of cell death. First, the software will count total number of cells in the Hoechst image. In the Sytox image, it will count, among Hoechst positive cells, how many cells are positive for sytox.
# SARS-COV2 = assay: microbe, parasite or virus in culture; type: cell-based; conditions: Severe acute respiratory syndrome coronavirus 2, Vero C1008, 48 h
smiles,measurement,setting,value
CCC(CC)COC(=O)[C@H](C)N[P@](=O)(OC[C@H]1O[C@@](C#N)(c2ccc3c(N)ncnn23)[C@H](O)[C@@H]1O)Oc1ccccc1 [Remdesivir],percentage of cell viability,VeroE6 cells; 24th hour of treatment,99.23%
same,percentage of cell viability,VeroE6 cells; 48th hour of treatment,94.37%
same,IC50,SARS-COV2; read-out: IC50 for E gene,150 nM
same,IC50,SARS-COV2; read-out: IC50 for N gene,110 nM

# — US12280082B2, “Formulation for inhibiting virus replication” (priority 2020, dated 2025)
